Key:
[1] = system: IL-1β induced IL-6 secretion by human primary astrocytes; test: IL-1β induced IL-6 secretion by human primary astrocytes (ELISA); type: cell-based; conditions: IL-1β 10 U/ml, 6 hours, inhibitor 1250, 2500 or 5000 nM
Source text: IL-1β has been implicated in both the initiation and propagation of neuroinflammatory changes seen in Alzheimer's disease patients. One of the main mechanisms of IL-1β is the induction of interleukin 6 (IL-6) secretion, which propagates the neuroinflammatory response in Alzheimer's disease patients. Using primary human adult astrocytes this inflammatory response as well as modulators (i.e. potential drugs for therapy) can be studied in vitro. […] In the presence of IL-1β (10 U/ml) these cells secrete IL-6 in the culture supernatant, which can be measured by ELISA. […] Cells were incubated with or without IL-1β (10 U/ml) for 6 hours in the presence of different concentration of IRAK1/4 inhibitor I (1250, 2500, or 5000 nM). IL-6 levels (pg/ml) in the culture supernatants were determined by ELISA. Shown are mean levels +/− S.D. of three replicate stimulations.

[2] = system: IL-1β induced IL-6 secretion by U373 astrocytoma cells; test: IL-1β induced IL-6 secretion by U373 astrocytoma cells (ELISA); type: cell-based; conditions: IL-1β 10 U/ml, 6 hours, inhibitor 1250, 2500 or 5000 nM

## O=C(Nc1nc2ccccc2n1CCN1CCOCC1)c1cccc([N+](=O)[O-])c1 [IRAK1/4 inhibitor I]
[1]
  IL-6 secretion in culture supernatant: dose-dependently inhibits IL-6 secretion
[1]; listed as IRAK1/4 inhibitor
  IL-6 secretion in culture supernatant: reduced
[2]
  IL-6 secretion in culture supernatant: dose-dependently inhibits IL-6 secretion
[2]; listed as IRAK1/4 inhibitor
  IL-6 secretion in culture supernatant: reduced
